Where two headings read alike, the source gives them in different places.
How the values were obtained:
Design in all cases: species or system Lymantria dispar
L. dispar PBP 1 = assay: Pheromone-binding protein (PBP) ligand binding assay, PBP1
Experimental: (§1) A. The protein and ligand are incubated in buffer overnight. B. For half of the incubation mixture, the free ligand (L) is separated from the protein-bound ligand (P.L) by size-exclusion chromatography on P2 Gel (BioRad, exclusion limit 2000 Da). The protein elutes from the small column bed, with its ligand bound (see Examples and […] et al. 2000; Staddon and Everton 1980), while the free ligand is retained on the column ([…] et al. 2000). C. […] The extract from the filtrate (B) contains the protein-bound ligand and the extract from the incubation mixture (A) contains all the ligand (bound and free) present in the aqueous phase. The extracts are analyzed by GC-MS, to obtain values for total ligand in solution (L+P.L) and for protein-bound ligand (P.L). These can then be used to calculate % bound (Table 3). These assays were performed as described in FIG. 3 and as follows: L. dispar PBP 1 or PBP 2 was incubated with the test compound or mini-library. The PBP and the ligand(s) (L) were left to equilibrate (eq 2) overnight. The non-bound ligand was then separated from the protein-bound material (PBP.L) by size-exclusion chromatography. By determining the total ligand in solution at equilibrium (eq. 3) and the protein-bound ligand, it is possible to estimate the percentage of ligand bound to the protein at equilibrium (eq. 4). […] This binding assay has been validated extensively in previous studies ([…] et al. 2000). The components of each mini-library separated cleanly by GC, so it was possible to monitor binding of individual components. PBP+L⇄PBP·L (eq. 2) [L]tot=[L]+[PBP·L] (eq. 3) % bound=100×[PBP·L]/[L]tot (eq. 4) Results: The members of each mini-library separated cleanly by GC, therefore it was possible to monitor binding of individual members to PBP1 or PBP2, the two known PBPs in the gypsy moth, by extraction from the aqueous incubation mixture, followed by GC analysis of the extract (FIG. 3).

[1] = test system: male gypsy moth antenna response to pheromone (+)-1; assay: EAG short-term (STI) and long-term (LTI) inhibition of pheromone signaling (Example 5); conditions: for inhibition at 0.001 mg / inhibition at 0.01 mg / inhibition at 0.1 mg / inhibition at 100 µg, 0.1 mg: Lymantria dispar, mean ± S.E.; for inhibition at 0.001 mg: mixed plume (+)-1 100 ng + compound 1 μg; for inhibition at 0.001 mg / inhibition at 0.01 mg / inhibition at 0.1 mg: negative = enhancement, read-out: Activity (%): short-term inhibition (STI); for inhibition at 0.01 mg: mixed plume (+)-1 100 ng + compound 10 μg; for inhibition at 0.1 mg: mixed plume (+)-1 100 ng + compound 100 μg (puff v); for inhibition at 100 µg, 0.1 mg: pure (+)-1 100 ng plume following mixed plume with 100 μg compound, read-out: Activity (%): long-term inhibition (LTI)
Procedure, shortened: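 Excised male gypsy moth antenna in saline pH 6.8 under purified air (300 mL/min); 0.3 s puffs: air, (+)-1 100 ng, (+)-1 plus compound 1, 10, 100 μg per cartridge, then (+)-1 alone. STI: mixed-puff air-corrected depolarization loss versus first pheromone puff; LTI: final pheromone-puff loss.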

L. dispar PBP 2 = assay: Pheromone-binding protein (PBP) ligand binding assay, PBP2
Experimental: as §1

[2] = member tested within library 3c{1, 1-5}
[3] = member tested within library 3c{3, 1-5}
[4] = member tested within library 3c{3, 1-5}, Nd = not detected in GC-MS
[5] = member tested within library 3c{2, 1-5}
[6] = tested as single compound, means ± S.E., 4 replicates
[7] = member tested within library 3c{5, 1-5}

Structure (SMILES) | PBP1 (% bound) (L. dispar PBP 1; [2]) | PBP1 (% bound) (L. dispar PBP 1; [3]) | PBP2 (% bound) (L. dispar PBP 2; [2]) | PBP2 (% bound) (L. dispar PBP 2; [4]) | PBP1 (% bound) (L. dispar PBP 1; [5]) | PBP1 (% bound) (L. dispar PBP 1; [6]) | PBP2 (% bound) (L. dispar PBP 2; [5]) | PBP2 (% bound) (L. dispar PBP 2; [6]) | PBP1 (% bound) (L. dispar PBP 1; [7]) | PBP2 (% bound) (L. dispar PBP 2; [7]) | inhibition at 0.001 mg [1] | inhibition at 0.01 mg [1] | inhibition at 0.1 mg [1] | inhibition at 100 µg, 0.1 mg [1] | long-term inhibition (LTI) activity (in words) [1] | long-term inhibition (LTI) activity (in words) ([1]; listed as 3c{2, 3})
CCOc1ccc(OCC)cc1 [3c{2,2}, 1,4-Diethoxy benzene] | – | – | – | – | 14 ± 0.5% | 28 ± 0.1% | 33 ± 0.6% | 19 ± 0.2% | – | – | 7 ± 12% | -19 ± 8% | -27 ± 15% | 17 ± 11% | – | –
CCCOc1ccc(OCC)cc1 [3c{2,3}, 1-ethoxy-4-propoxy benzene] | – | 13 ± 0.3% | – | 6 ± 0.2% | 10 ± 0.3% | – | 22 ± 0.3% | – | – | – | 8 ± 20% | -30 ± 10% | -62 ± 50% | 58 ± 7% | strongest long-term inhibitor | most active
CC(C)CCOc1ccc(OCCC(C)C)cc1 [3c{5,5}, 1,4-Di-(3-methyl-butyloxy) benzene] | – | – | – | – | – | 9 ± 0.7% | – | 8 ± 0.2% | 5 ± 0.1% | 1 ± 0.1% | 41 ± 14% | 4 ± 26% | 50 ± 9% | 7 ± 4% | – | –
COc1ccc(OC)cc1 [3c{1,1}, 1,4-Dimethoxy benzene] | 24 ± 0.3% | – | 19 ± 0.9% | – | – | 40 ± 2.5% | – | 13 ± 2.1% | – | – | 24 ± 8% | 23 ± 9% | 15 ± 25% | -7 ± 10% | – | –

The next lines start with results.

PBP1 (% bound) (L. dispar PBP 1; [2]) | PBP1 (% bound) (L. dispar PBP 1; [3]) | PBP2 (% bound) (L. dispar PBP 2; [2]) | PBP2 (% bound) (L. dispar PBP 2; [4]) | PBP1 (% bound) (L. dispar PBP 1; [5]) | PBP1 (% bound) (L. dispar PBP 1; [6]) | PBP2 (% bound) (L. dispar PBP 2; [5]) | PBP2 (% bound) (L. dispar PBP 2; [6]) | PBP1 (% bound) (L. dispar PBP 1; [7]) | PBP2 (% bound) (L. dispar PBP 2; [7]) | Structure (SMILES) | inhibition at 0.001 mg [1] | inhibition at 0.01 mg [1] | inhibition at 0.1 mg [1] | inhibition at 100 µg, 0.1 mg [1] | long-term inhibition (LTI) activity (in words) [1] | long-term inhibition (LTI) activity (in words) ([1]; listed as 3c{2, 3})
7 ± 0.5% | 13 ± 0.3% | 5 ± 2.1% | 7 ± 0.2% | – | – | – | – | – | – | CCCOc1ccc(OC)cc1 [3c{1,3}, 1-methoxy-4-propoxy-benzene] | 28 ± 16% | -2 ± 5% | 48 ± 14% | 39 ± 12% | – | –
– | 4 ± 0.3% | – | 3 ± 0.1% | – | 15 ± 0.7% | – | 5 ± 0.2% | – | – | CCCOc1ccc(OCCC)cc1 [3c{3,3}, 1,4-Dipropoxy benzene] | -3 ± 13% | -60 ± 38% | -100 ± 40% | 29 ± 13% | – | –

Source: patent US9497963B2, “Methods and compositions for control of gypsy moth, Lymantria dispar” (Simon Fraser University, priority 2008, dated 2016)
